Experimental data taken from patent US11407719B2, “Anti-inflammatory agents” (Resverlogix Corp., priority 2009, dated 2022).

Assays:
hIL-6 mRNA = experiment: Quantification of hIL-6 mRNA; assay type: cell-based, human; set-up: key: Active: an active compound is one that causes a ≥20% inhibition in IL-6 mRNA at a concentration less than or equal to 10 μM; conditions: IL-6 mRNA by real-time PCR; differentiated U937 cells, 1 h pretreatment, lipopolysaccharide stimulation 3 h; concentration ≤10 μM
Procedure: In this example, […] in tissue culture cells was quantitated to measure the transcriptional inhibition of hIL-6 when treated with a compound of the invention.
A human leukemic monocyte lymphoma cell line (U937) was plated (3.2×10^5 cells per well) in a 96-well plate in 100 μL RPMI-1640, and differentiated for 3 days prior to the addition of the compound of interest. The cells were pretreated for 1 h with the test compound prior to stimulation with lipolysaccharide from Escherichia coli. The cells were incubated at 37° C. for 3 h before the cells were harvested. At time of harvest, the spent media was removed from the cells and the cells were rinsed in 200 μL PBS. Cell lysis solution (70 μL) was added the cells in each well and incubated for 5-10 min at room temperature, to allow for complete cell lysis and detachment. mRNA was then prepared using the “mRNA Catcher PLUS plate” (Invitrogen), according to the protocol supplied. After the last wash, as much wash buffer as possible was aspirated without allowing the wells to dry. Elution buffer (E3, 70 μL) was then added to each well. mRNA was then eluted by incubating the mRNA Catcher PLUS plate with Elution Buffer for 5 min at 68° C. and then immediately placing the plate on ice.
(§1) The eluted mRNA isolated was then used in a one-step quantitative real-time PCR reaction, using components of the Ultra Sense Kit together with Applied Biosystems primer-probe mixes. Real-time PCR data was analyzed, normalizing the Ct values for hIL-6 to an internal control, prior to determining the fold induction of each unknown sample, relative to the control.

VCAM-1 mRNA = experiment: Quantification of hVCAM mRNA; assay type: cell-based, human; set-up: key: Active: an active compound is one that causes a ≥20% inhibition in VCAM-1 mRNA at a concentration less than or equal to 10 μM; -1 mRNA at a concentration less than or equal to 10 μM; conditions: VCAM-1 mRNA by real-time PCR; HUVECs, 1 h pretreatment, tumor necrosis factor-α stimulation 24 h; concentration ≤10 μM
Procedure: In this example, […] in tissue culture cells was quantitated to measure the transcriptional inhibition of hVCAM when treated with a compound of the invention.
Human umbilical vein endothelial cells (HUVECs) were plated in a 96-well plate (4.0×10^3 cells/well) in 100 μL EGM media and incubated for 24 h prior to the addition of the compound of interest. The cells were pretreated for 1 h with the test compound prior to stimulation with tumor necrosis factor-α. The cells were incubated for an additional 24 h before the cells were harvested. At time of harvest, the spent media was removed from the HUVECs and rinsed in 200 μL PBS. Cell lysis solution (70 μL) was then added the cells in each well and incubated for ˜5-10 min at room temperature, to allow for complete cell lysis and detachment. mRNA was then prepared using the “mRNA Catcher PLUS plate” (Invitrogen), according to the protocol supplied. After the last wash, as much wash buffer as possible was aspirated without allowing the wells to dry. Elution buffer (E3, 70 μL) was then added to each well. mRNA was then eluted by incubating the mRNA Catcher PLUS plate with elution buffer for 5 min at 68° C. and then immediately placing the plate on ice.
as §1, with “mRNA so” for “mRNA”, “hVCAM” for “hIL-6”

| melting point [°C] | SMILES | Inhibition of IL-6 expression (hIL-6 mRNA) | Inhibition of VCAM-1 expression (VCAM-1 mRNA) |
| --- | --- | --- | --- |
| 229 to 230 | Cc1cc(-c2nc3ccc(CN4CCN(C)CC4)cc3c(=O)[nH]2)cc(C)n1 [2-(2,6-Dimethylpyridin-4-yl)-6-((4-methylpiperazin-1-yl)methyl)quinazolin-4(3H)-one] | Active | – |
| – | COc1cc(OC)c2c(=O)[nH]c(-c3ccc(N4CCNCC4)cc3)nc2c1 [5,7-Dimethoxy-2-(4-(piperazin-1-yl)phenyl)quinazolin-4(3H)-one] | Active | Active |
| – | COc1cc(OC)c2c(=O)[nH]c(-c3cc(C)c(OCCN4C(=O)c5ccccc5C4=O)c(C)c3)nc2c1 [2-(2-(4-(5,7-dimethoxy-4-oxo-3,4-dihydroquinazolin-2-yl)-2,6-dimethylphenoxy)ethyl)isoindoline-1,3-dione] | Active | Active |
| – | COc1cc(OC)c2c(=O)[nH]c(-c3ccc4[nH]c(CN(C)C)cc4c3)nc2c1 [2-(2-((Dimethylamino)methyl)-1H-indol-5-yl)-5,7-dimethoxyquinazolin-4(3H)-one] | Active | Active |
| – | COc1cc(OC)c2c(=O)[nH]c(-c3ccc(N4CCN(C(=O)CC(F)(F)F)CC4)cc3)nc2c1 [5,7-Dimethoxy-2-(4-(4-(3,3,3-trifluoropropanoyl)piperazin-1-yl)phenyl)quinazolin-4(3H)-one] | Active | Active |
| – | COc1cc(OC)c2c(=O)[nH]c(-c3ccc4[nH]c(CN5CCCC5)cc4c3)nc2c1 [5,7-Dimethoxy-2-(2-(pyrrolidin-1-ylmethyl)-1H-indol-5-yl)quinazolin-4(3H)-one] | Active | Active |
| – | CCN(C(C)=O)C1CCN(c2ccc(-c3nc4cc(OC)cc(OC)c4c(=O)[nH]3)cc2)CC1 [N-(1-(4-(5,7-Dimethoxy-4-oxo-3,4-dihydroquinazolin-2-yl)phenyl)piperidin-4-yl)-N-ethylacetamide] | Active | Active |
| – | Cc1cc(-c2nc3ccccc3c(=O)[nH]2)cc(C)c1OCCN1CCOCC1 [2-(3,5-dimethyl-4-(2-morpholinoethoxy)phenyl)quinazolin-4(3H)-one] | Active | Active |
| – | COc1cc(OC)c2c(=O)[nH]c(-c3ccc(N4CCN(C(=O)c5cnn(C)c5Cl)CC4)cc3)nc2c1 [2-(4-(4-(5-Chloro-1-methyl-1H-pyrazole-4-carbonyl)piperazin-1-yl)phenyl)-5,7-dimethoxyquinazolin-4(3H)-one] | Active | Active |
| – | COc1cc(OC)c2c(=O)[nH]c(-c3ccc(N4C[C@@H](C)N[C@@H](C)C4)cc3)nc2c1 [2-(4-((3R,5S)-3,5-Dimethylpiperazin-1-yl)phenyl)-5,7-dimethoxyquinazolin-4(3H)-one] | Active | Active |
| – | CCCCCC(=O)N1CCN(c2ccc(-c3nc4cc(OC)cc(OC)c4c(=O)[nH]3)cc2)CC1 [2-(4-(4-Hexanoylpiperazin-1-yl)phenyl)-5,7-dimethoxyquinazolin-4(3H)-one] | Active | Inactive |
| – | COc1cc(OC)c2c(=O)[nH]c(-c3ccc(N4CCC(NC(C)=O)CC4)cc3)nc2c1 [N-(1-(4-(5,7-Dimethoxy-4-oxo-3,4-dihydroquinazolin-2-yl)phenyl)piperidin-4-yl)acetamide] | Active | Active |
| – | COc1cc(OC)c2c(=O)[nH]c(-c3ccc(N4CCN(C(=O)C5CC5)CC4)cc3)nc2c1 [2-(4-(4-(Cyclopropanecarbonyl)piperazin-1-yl)phenyl)-5,7-dimethoxyquinazolin-4(3H)-one] | Active | Active |
| – | COc1cc(OC)c2c(=O)[nH]c(-c3ccc(N4C[C@@H](C)N(C(C)=O)[C@@H](C)C4)cc3)nc2c1 [2-(4-((3R,5S)-4-Acetyl-3,5-dimethylpiperazin-1-yl)phenyl)-5,7-dimethoxyquinazolin-4(3H)-one] | Active | Active |
| – | COc1cc(OC)c2c(=O)[nH]c(-c3ccc(N4CCN(CCO)CC4)cc3)nc2c1 [2-(4-(4-(2-hydroxyethyl)piperazin-1-yl)phenyl)-5,7-dimethoxyquinazolin-4(3H)-one] | Active | Active |
| – | COc1cc(OC)c2c(=O)[nH]c(-c3ccc(N4CCN(C(C)C)CC4)cc3)nc2c1 [2-(4-(4-Isopropylpiperazin-1-yl)phenyl)-5,7-dimethoxyquinazolin-4(3H)-one] | Active | Active |
| – | COc1cc(OC)c2c(=O)[nH]c(-c3ccc(N4CCN(C(C)=O)CC4)cc3)nc2c1 [2-(4-(4-Acetylpiperazin-1-yl)phenyl)-5,7-dimethoxyquinazolin-4(3H)-one] | Active | Active |
| – | COc1cc(OC)c2c(=O)[nH]c(-c3cc(C)c(OCCN4CCCCC4)c(C)c3)nc2c1 [2-(3,5-Dimethyl-4-(2-(piperidin-1-yl)ethoxy)phenyl)-5,7-dimethoxyquinazolin-4(3H)-one] | Active | Active |
| – | COc1cc(OC)c2c(=O)[nH]c(-c3ccc(N4CCN(C(=O)C(C)C)CC4)cc3)nc2c1 [2-(4-(4-Isobutyrylpiperazin-1-yl)phenyl)-5,7-dimethoxyquinazolin-4(3H)-one] | Active | Active |
| – | CCCCN1CCN(c2ccc(-c3nc4cc(OC)cc(OC)c4c(=O)[nH]3)cc2)CC1 [2-(4-(4-butylpiperazin-1-yl)phenyl)-5,7-dimethoxyquinazolin-4(3H)-one] | Active | Active |
| – | COCCOc1cc(OC)cc2nc(-c3cc(C)nc(C)c3)[nH]c(=O)c12 [2-(2,6-Dimethylpyridin-4-yl)-7-methoxy-5-(2-methoxyethoxy)quinazolin-4(3H)-one] | Active | Inactive |
| – | COc1cc(OC)c2c(=O)[nH]c(-c3cc(C)c(OCCN4C(=O)CCC4=O)c(C)c3)nc2c1 [1-(2-(4-(5,7-Dimethoxy-4-oxo-3,4-dihydroquinazolin-2-yl)-2,6-dimethylphenoxy)ethyl)pyrrolidine-2,5-dione] | Active | Active |
| – | COc1cc(OC)cc(-c2nc3cc(OC)cc(OC)c3c(=O)[nH]2)c1 [2-(3,5-dimethoxyphenyl)-5,7-dimethoxyquinazolin-4(3H)-one] | Active | Active |
| – | Cc1cc(-c2nc3cc(F)cc(F)c3c(=O)[nH]2)cc(C)c1OCCN1CCCC1 [2-(3,5-Dimethyl-4-(2-(pyrrolidin-1-yl)ethoxy)phenyl)-5,7-difluoroquinazolin-4(3H)-one] | Active | Active |
| – | Cc1cc(-c2nc3cc(F)cc(N4CCCC4)c3c(=O)[nH]2)cc(C)c1OCCN1CCCC1 [2-(3,5-Dimethyl-4-(2-(pyrrolidin-1-yl)ethoxy)phenyl)-7-fluoro-5-(pyrrolidin-1-yl)quinazolin-4(3H)-one] | Active | Active |
| – | COc1cc(OC)c2c(=O)[nH]c(-c3cc(C)c(OCCN4CCOCC4)c(C)c3)cc2n1 [7-(3,5-dimethyl-4-(2-morpholinoethoxy)phenyl)-2,4-dimethoxy-1,6-naphthyridin-5(6H)-one] | Active | Active |
